According to patent publication US20260285834A1, “SUBSTITUTED PYRIDINE DERIVATIVES AS SARM1 INHIBITORS” (Nura Bio, Inc., priority 2022, published 2026):
Where a name gives a salt, the structure may show the parent alone.

Each compound was assayed against T1, human SARM1(50-724) (Homo sapiens, UniProt Q6SZW1) (assay: SARM1 biological assay: HPLC measurement of NAD and NAM peak areas). Conditions: not given.
T1 construct: 40 nM human SARM1(50-724)
T1 sequence (Q6SZW1 50-724): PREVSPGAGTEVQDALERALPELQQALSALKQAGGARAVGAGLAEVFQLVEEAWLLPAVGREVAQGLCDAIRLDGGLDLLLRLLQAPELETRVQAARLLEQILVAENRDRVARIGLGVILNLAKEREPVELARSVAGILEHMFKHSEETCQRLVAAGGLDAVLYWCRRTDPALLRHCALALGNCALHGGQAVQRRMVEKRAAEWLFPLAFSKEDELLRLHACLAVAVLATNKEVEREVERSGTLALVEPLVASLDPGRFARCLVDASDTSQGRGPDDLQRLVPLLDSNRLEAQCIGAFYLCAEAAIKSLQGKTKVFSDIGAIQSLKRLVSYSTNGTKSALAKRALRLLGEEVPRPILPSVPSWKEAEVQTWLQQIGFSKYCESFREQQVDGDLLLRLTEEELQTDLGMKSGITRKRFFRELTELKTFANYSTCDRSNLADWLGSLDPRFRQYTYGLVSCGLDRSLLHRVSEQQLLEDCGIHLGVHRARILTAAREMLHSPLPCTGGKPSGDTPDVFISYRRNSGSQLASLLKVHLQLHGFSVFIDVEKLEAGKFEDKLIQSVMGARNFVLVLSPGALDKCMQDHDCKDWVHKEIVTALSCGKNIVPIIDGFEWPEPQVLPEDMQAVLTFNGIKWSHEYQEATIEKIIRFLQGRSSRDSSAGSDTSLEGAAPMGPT
Type: biochemical
Description: Each reaction was run at a volume of 20 μL containing 50 μM compound (dissolved in DMSO; final concentration of DMSO is 1% v/v), 40 nM human SARM1(50-724), 0.3 mM NMN, 20 μM NAD, 1 mM TCEP, 25 mM HEPES pH 7.4, 10 mM KCl and 10 mM MgCl2. The reaction was incubated at room temperature for 60 minutes and quenched with 20 μL of 0.4% formic acid. The samples were run on Agilent HPLC 1260 Infinity II with Synergi 2.5 μM Fusion-RP 100 Å (100×3.0 mm) LC column from Phenomenex. Total run time for each sample was 4 minutes. The run was isocratic with 1.5% methanol in 40 mM ammonium acetate pH 6.0. Samples were run at a flow rate of 0.8 mL/min at 55° C. Peak areas of NAD and NAM were determined using OpenLAB CDS (Chem Station edition) software. For dose-response, the compound was diluted serially 1:3 in DMSO and added to the reaction starting at a final compound concentration of 100 μM in 1% DMSO.

First: Fc1cnccc1Cc1c[nH]c(C2CC(F)(F)C2)n1 [Example 4, 4-((2-(3,3-Difluorocyclobutyl)-1H-imidazol-4-yl)methyl)-3-fluoropyridine]
Second: Fc1cnccc1Cc1c[nH]c(C2CCC(F)(F)C2)n1 (centres unmarked) [Example 18A, 4-((2-(3,3-Difluorocyclopentyl)-1H-imidazol-4-yl)methyl)-3-fluoropyridine]
The IC50 of the first is lower: < 1000 nM for the first, 1000 to 10000 nM for the second.

ClC1(Cl)CC1c1nc(Cc2ccncc2)c[nH]1 (centres unmarked) [Example 6, 4-((2-(2,2-Dichlorocyclopropyl)-1H-imidazol-4-yl)methyl)pyridine] and ClC1(Cl)C[C@H]1c1nc(Cc2ccncc2)c[nH]1 (single isomer, unassigned) [Example 33B] cannot be ordered by IC50: < 1000 nM for the first, < 1000 nM for the second.

First: F[C@H]1C[C@@H](c2nc(Cc3ccncc3)c[nH]2)C1 [Example 29, (cis)-4-((2-(3-Fluorocyclobutyl)-1H-imidazol-4-yl)methyl)pyridine]
Second: F[C@H]1C[C@H](c2nc(Cc3ccncc3)c[nH]2)C1 [Example 30, (trans)-4-((2-(3-Fluorocyclobutyl)-1H-imidazol-4-yl)methyl)pyridine]
The IC50 of the first is lower: < 1000 nM for the first, 1000 to 10000 nM for the second.

FC(F)(F)[C@H]1C[C@@H](c2nc(Cc3ccncc3)c[nH]2)C1 (single isomer, unassigned) [Example 31A, (cis)-4-((2-(3-(Trifluoromethyl)cyclobutyl)-1H-imidazol-4-yl)methyl)pyridine] and FC(F)(F)[C@H]1C[C@H](c2nc(Cc3ccncc3)c[nH]2)C1 (single isomer, unassigned) [Example 31B, (trans)-4-((2-(3-(Trifluoromethyl)cyclobutyl)-1H-imidazol-4-yl)methyl)pyridine] fall in the same range of IC50: 1000 to 10000 nM for the first, 1000 to 10000 nM for the second.

Compared with FC1(F)CC[C@@H](c2nc(Cc3ccncc3)c[nH]2)C1 (single isomer, unassigned) [Example 11B], FC1(F)CC[C@H](c2nc(Cc3ccncc3)c[nH]2)C1 (single isomer, unassigned) [Example 11A] is lower in IC50: 1000 to 10000 nM for the first, < 1000 nM for the second. The second is the more potent here.

First: FC(F)(F)C1(c2nc(Cc3ccncc3)c[nH]2)CC1 [Example 16]
Second: FC(F)(F)C1(Cc2nc(Cc3ccncc3)c[nH]2)CC1 [Example 25]
The IC50 of the first is higher: 1000 to 10000 nM for the first, < 1000 nM for the second. The second is the more potent here.

First: FC1(F)CCC(c2nc(Cc3ccncc3)c[nH]2)CC1 [Example 13, 4-((2-(4,4-Difluorocyclohexyl)-1H-imidazol-4-yl)methyl)pyridine]
Second: FC1(F)CC(c2nc(Cc3ccncc3)c[nH]2)C1 [Example 15A, 4-((2-(3,3-Difluorocyclobutyl)-1H-imidazol-4-yl)methyl)pyridine]
The IC50 of the first is higher: 1000 to 10000 nM for the first, < 1000 nM for the second.

First: FC1(F)CC(c2nc(Cc3ccncc3)co2)C1 [Example 15B, 2-(3,3-Difluorocyclobutyl)-4-(pyridin-4-ylmethyl)oxazole]
Second: ClC1(Cl)CC(c2nc(Cc3ccncc3)co2)C1 [Example 19B, 2-(3,3-Dichlorocyclobutyl)-4-(pyridine-4-ylmethyl)oxazole]
The IC50 of the first is higher: 10000 to 100000 nM for the first, 1000 to 10000 nM for the second. The second is the more potent here.

FC1(F)CC1c1nc(Cc2ccncc2)c[nH]1 (single isomer, unassigned) [Example 5A] and F[C@@]1(Cl)C[C@H]1c1nc(Cc2ccncc2)c[nH]1 (single isomer, unassigned) [Example 39C] cannot be ordered by IC50: < 1000 nM for the first, < 1000 nM for the second.

First: Fc1cnccc1Cc1c[nH]c(C2CCC(F)(F)CC2)n1 [Example 17A, 4-((2-(4,4-Difluorocyclohexyl)-1H-imidazol-4-yl)methyl)-3-fluoropyridine]
Second: Fc1cnccc1Cc1c[nH]c(C2CC2(F)F)n1 (centres unmarked) [Example 14, 4-((2-(2,2-Difluorocyclopropyl)-1H-imidazol-4-yl)methyl)-3-fluoropyridine]
The IC50 of the first is higher: 1000 to 10000 nM for the first, < 1000 nM for the second.

C[C@@]1(c2nc(Cc3ccncc3)c[nH]2)CC1(F)F (single isomer, unassigned) [Example 10B] and C[C@]1(c2nc(Cc3ccncc3)c[nH]2)CC1(F)F (single isomer, unassigned) [Example 10A] cannot be ordered by IC50: < 1000 nM for the first, < 1000 nM for the second.

First: FC(F)(F)C1CC1c1nc(Cc2ccncc2)c[nH]1 (centres unmarked) [Example 26, 4-((2-(2-(Trifluoromethyl)cyclopropyl)-1H-imidazol-4-yl)methyl)pyridine]
Second: FC(F)(F)O[C@H]1C[C@@H](c2nc(Cc3ccncc3)c[nH]2)C1 [Example 37A, (cis)-4-((2-(3-(Trifluoromethoxy)cyclobutyl)-1H-imidazole-4-yl)methyl)pyridine]
The IC50 of the first is higher: 1000 to 10000 nM for the first, < 1000 nM for the second.

N#CC1CC(c2nc(Cc3ccncc3)c[nH]2)C1 [Example 35B, (trans)-(1S, 3S)-3-(4-Pyridin-4ylmethyl)-1H-imidazol-2-yl)cyclobutane-1-carbonitrile] and ClC1CC(c2nc(Cc3ccncc3)c[nH]2)C1 (centres unmarked) [Example 34, 4-((2-(3-Chlorocyclobutyl)-1H-imidazol-4-yl)methyl)pyridine] cannot be ordered by IC50: < 1000 nM for the first, < 1000 nM for the second.

Fc1cnccc1Cc1coc(C2CCC(F)(F)C2)n1 (centres unmarked) [Example 18B, 2-(3,3-Difluorocyclopentyl)-4-((3-fluoropyridin-4-yl)methyl)oxazole] and FC1(F)CC1Cc1nc(Cc2ccncc2)co1 (centres unmarked) [Example 20B, 2-((2,2-Difluorocyclopropyl)methyl)-4-(pyridine-4ylmethyl)oxazole] fall in the same range of IC50: 10000 to 100000 nM for the first, 10000 to 100000 nM for the second.

ClC1(Cl)CC(c2nc(Cc3ccncc3)c[nH]2)C1 [Example 19A, 4-((2-(3,3-Dichlorocyclobutyl)-1H-imidazol-4-yl)methyl)pyridine] and CC1(F)CC(c2nc(Cc3ccncc3)c[nH]2)C1 (centres unmarked) [Example 9, 4-((2-(3-Fluoro-3-methylcyclobutyl)-1H-imidazol-4-yl)methyl)pyridine] cannot be ordered by IC50: < 1000 nM for the first, < 1000 nM for the second.

FC1(F)CN(Cc2nc(Cc3ccncc3)c[nH]2)C1 [Example 7] and FC1(F)CC(Cc2nc(Cc3ccncc3)c[nH]2)C1 [Example 24, 4-((2-((3,3-Difluorocyclobutyl)methyl)-1H-imidazol-4-yl)methyl)pyridine] fall in the same range of IC50: 1000 to 10000 nM for the first, 1000 to 10000 nM for the second.

F[C@]1(Cl)C[C@@H]1c1nc(Cc2ccncc2)c[nH]1 (single isomer, unassigned) [Example 39B] and F[C@]1(Cl)C[C@H]1c1nc(Cc2ccncc2)c[nH]1 (single isomer, unassigned) [Example 39D] cannot be ordered by IC50: < 1000 nM for the first, < 1000 nM for the second.

FC1(F)CC1(F)c1nc(Cc2ccncc2)c[nH]1 (centres unmarked) [Example 40, 4-((2-(1,2,2-Trifluorocyclopropyl)-1H-imidazol-4-yl)methyl)pyridine] and FC1(F)C[C@@H]1Cc1nc(Cc2ccncc2)c[nH]1 (single isomer, unassigned) [Example 21A] cannot be ordered by IC50: < 1000 nM for the first, < 1000 nM for the second.

First: FC(F)(F)Sc1ncc(Cc2ccncc2)[nH]1 [Example 28, 4-((2-((Trifluoromethyl)thio)-1H-imidazol-5-yl)methyl)pyridine]
Second: OC1(C(F)(F)F)CC(c2nc(Cc3ccncc3)c[nH]2)C1 (centres unmarked) [Example 8, 3-(4-(Pyridin-4-ylmethyl)-1H-imidazol-2-yl)-1-(trifluoromethyl)cyclobutan-1-ol]
The IC50 of the first is lower: < 1000 nM for the first, 1000 to 10000 nM for the second.

FC1(F)CCN(c2nc(Cc3ccncc3)c[nH]2)C1 [Example 3] and FC1(F)CCN(c2nc(Cc3ccncc3)c[nH]2)CC1 [Example 1] fall in the same range of IC50: 1000 to 10000 nM for the first, 1000 to 10000 nM for the second.

First: C[C@@H](c1ccncc1)c1c[nH]c(C(=O)C(F)(F)F)n1 (single isomer, unassigned) [Example 23B, hydrochloride]
Second: FC1(F)C[C@H]1Cc1nc(Cc2ccncc2)c[nH]1 (single isomer, unassigned) [Example 21B]
The IC50 of the first is higher: 1000 to 10000 nM for the first, < 1000 nM for the second. The second is the more potent here.

First: FC1(F)CNC(c2nc(Cc3ccncc3)c[nH]2)C1 (centres unmarked) [Example 32, 4-((2-(4,4-Difluoropyrrolidin-2-yl)-1H-imidazol-4-yl)methyl)pyridine]
Second: F[C@@]1(Cl)C[C@@H]1c1nc(Cc2ccncc2)c[nH]1 (single isomer, unassigned) [Example 39A]
The IC50 of the first is higher: 1000 to 10000 nM for the first, < 1000 nM for the second. The second is the more potent here.

Same assay, conditions: 40 nM human SARM1(50-724), 0.3 mM NMN, 20 μM NAD, 60 min at room temperature; dose-response 1:3 serial dilution from 100 μM; read-out: Average IC50

N#CC1(F)CC(c2nc(Cc3ccncc3)c[nH]2)C1 (centres unmarked) [Example 38A] and N#C[C@H]1C[C@@H](c2nc(Cc3ccncc3)c[nH]2)C1 [Example 35A] fall in the same range of IC50: 1000 to 10000 nM for the first, 1000 to 10000 nM for the second.

Same assay, conditions: read-out: Average IC50; 40 nM human SARM1(50-724), 0.3 mM NMN, 20 μM NAD, 60 min at room temperature; dose-response 1:3 serial dilution from 100 μM

In the case of FC1(F)CC1c1nc(Cc2ccncc2)c[nH]1 (single isomer, unassigned) [Example 5B], the IC50 is reported as < 1000 nM.
